Values after ≈ are worked out from the molar mass of the structure shown.

Data set [1] is described as follows: Hemolytic activity in sheep erythrocytes incubated for 1 hr by absorbance based assay. The format is toxicity, cell-based, Ovis aries, Erythrocyte.
Data set [2] has as its system Staphylococcus aureus. Kind of data set: Antibacterial activity against Staphylococcus aureus ATCC 29213 incubated for 16 to 18 hrs CLSI based by microbroth dilution assay. The format is functional. As to conditions: time 16-18 hrs. Background: In broth dilution the organism is exposed to a series of concentrations in liquid medium.
The next data set deals with Escherichia coli. Put plainly: Antibacterial activity against Escherichia coli ATCC 25922 incubated for 16 to 18 hrs CLSI based by microbroth dilution assay. The following applies: time 16-18 hrs. The format is functional.
Data set [3] concerns Staphylococcus aureus. Kind of data set: Antibacterial activity against methicillin-resistant Staphylococcus aureus clinical isolate M-9 incubated for 16 to 18 hrs CLSI based by microbroth dilution assay. The format is functional. As to conditions: time 16-18 hrs.
Data set [4] has as its system Staphylococcus aureus. Put plainly: Antibacterial activity against methicillin-resistant Staphylococcus aureus clinical isolate M-7 incubated for 16 to 18 hrs CLSI based by microbroth dilution assay. Format: functional. The following applies: time 16-18 hrs.
In data set [5] the test system is Staphylococcus aureus. Kind of data set: Antibacterial activity against methicillin-resistant Staphylococcus aureus clinical isolate M-5 incubated for 16 to 18 hrs CLSI based by microbroth dilution assay. Format: functional. As to conditions: time 16-18 hrs.
Data set [6] is described as follows: Selectivity index, ratio of HC50 for sheep erythrocytes to MIC for Staphylococcus aureus ATCC 29213. The format is toxicity. The following applies: read-out: Selectivity Index.
For data set [7], the system named is Staphylococcus aureus. Kind of data set: Antibacterial activity against methicillin-resistant Staphylococcus aureus clinical isolate M-3 incubated for 16 to 18 hrs CLSI based by microbroth dilution assay. The following applies: time 16-18 hrs. The format is functional.
Data set [8] concerns Staphylococcus aureus. Put plainly: Antibacterial activity against methicillin-resistant Staphylococcus aureus clinical isolate M-4 incubated for 16 to 18 hrs CLSI based by microbroth dilution assay. As to conditions: time 16-18 hrs. The format is functional.
In data set [9] the test system is Staphylococcus aureus. Kind of data set: Antibacterial activity against methicillin-resistant Staphylococcus aureus clinical isolate M-2 incubated for 16 to 18 hrs CLSI based by microbroth dilution assay. Format: functional. The following applies: time 16-18 hrs.
Data set [10] deals with Staphylococcus aureus. Put plainly: Antibacterial activity against methicillin-resistant Staphylococcus aureus clinical isolate M-6 incubated for 16 to 18 hrs CLSI based by microbroth dilution assay. The format is functional. The following applies: time 16-18 hrs.
For data set [11], the system named is Staphylococcus aureus. Kind of data set: Antibacterial activity against methicillin-resistant Staphylococcus aureus clinical isolate M-10 incubated for 16 to 18 hrs CLSI based by microbroth dilution assay. Format: functional. As to conditions: time 16-18 hrs.
Data set [12] deals with Staphylococcus aureus. Kind of data set: Antibacterial activity against methicillin-resistant Staphylococcus aureus clinical isolate M-1 incubated for 16 to 18 hrs CLSI based by microbroth dilution assay. Format: functional. As to conditions: time 16-18 hrs.
Data set [13] relates to Staphylococcus aureus. Kind of data set: Antibacterial activity against methicillin-resistant Staphylococcus aureus clinical isolate M-8 incubated for 16 to 18 hrs CLSI based by microbroth dilution assay. The format is functional. The following applies: time 16-18 hrs.

As to `CCCCCCNC(=O)C[N+](C)(C)CCCCn1c(-c2ccc(N(C)C)cc2)nc2c3ccccc3c3ccccc3c21.[Br-]`, in [1], the HC50 (as a rule, the concentration that lyses half of the red blood cells) at 1 h was determined as 353 µg/mL. The MIC (as a rule, the least concentration at which growth counts as inhibited) against Staphylococcus aureus [2] worked out at 2 µg/mL; with Escherichia coli it was 32 µg/mL; in the data set on Staphylococcus aureus [3], 1 µg/mL; in the data set with Staphylococcus aureus [4] it was 1 µg/mL; with Staphylococcus aureus [5], 2 µg/mL; in the data set with Staphylococcus aureus [7], 2 µg/mL. Also, the MIC worked out at 2 µg/mL in the data set with Staphylococcus aureus [8]; 2 µg/mL with Staphylococcus aureus [9]; 2 µg/mL with Staphylococcus aureus [10]; 2 µg/mL in the data set on Staphylococcus aureus [11]; 2 µg/mL in the data set with Staphylococcus aureus [12]; 1 µg/mL against Staphylococcus aureus [13]. Also, in data set [6], the selectivity ratio was 176.

On to `CC(C)CN(CC(C)C)C(=O)C[N+](C)(C)CCCn1c(-c2ccc(N(C)C)cc2)nc2c3ccccc3c3ccccc3c21.[Br-]`, for which, in [1], the HC50 at 1 h was over 320 µg/mL. In addition, the MIC against Staphylococcus aureus [2] was determined as 8 µg/mL; against Escherichia coli, 128 µg/mL; in the data set on Staphylococcus aureus [3], 8 µg/mL; with Staphylococcus aureus [4], 32 µg/mL; against Staphylococcus aureus [5], 8 µg/mL; with Staphylococcus aureus [7], 16 µg/mL. Besides, the MIC in the data set with Staphylococcus aureus [8] is 4 µg/mL; in the data set on Staphylococcus aureus [9], 16 µg/mL; in the data set on Staphylococcus aureus [10], 16 µg/mL; against Staphylococcus aureus [11], 8 µg/mL; with Staphylococcus aureus [12], 8 µg/mL; against Staphylococcus aureus [13], 16 µg/mL. In addition, the selectivity ratio in data set [6] is 40.

Regarding `CCNC(=O)C[N+](C)(C)CCCCn1c(-c2ccc(N(C)C)cc2)nc2c3ccccc3c3ccccc3c21.[Br-]`, the 50% haemolytic concentration (HC50) at 1 h in data set [1] is over 640 µg/mL. The MIC in the data set with Staphylococcus aureus [2] is 16 µg/mL; with Escherichia coli, over 128 µg/mL; in the data set with Staphylococcus aureus [3] it was 16 µg/mL; in the data set on Staphylococcus aureus [4], 16 µg/mL; with Staphylococcus aureus [5], 16 µg/mL; against Staphylococcus aureus [7], 16 µg/mL. The MIC is 16 µg/mL in the data set on Staphylococcus aureus [8]; 16 µg/mL against Staphylococcus aureus [9]; 16 µg/mL against Staphylococcus aureus [10]; 16 µg/mL with Staphylococcus aureus [11]; 16 µg/mL against Staphylococcus aureus [12]; 32 µg/mL with Staphylococcus aureus [13]. For the same compound, the selectivity ratio in data set [6] is over 40.

As for `CCCCN(CCCC)C(=O)C[N+](C)(C)CCCn1c(-c2ccc(N(C)C)cc2)nc2c3ccccc3c3ccccc3c21.[Br-]`, the HC50 at 1 h in data set [1] was over 640 µg/mL. Also, the MIC was 8 µg/mL with Staphylococcus aureus [2]; 64 µg/mL in the data set with Escherichia coli; 4 µg/mL in the data set with Staphylococcus aureus [3]; 4 µg/mL in the data set with Staphylococcus aureus [4]; 4 µg/mL with Staphylococcus aureus [5]; 4 µg/mL with Staphylococcus aureus [7]. In addition, the MIC against Staphylococcus aureus [8], against Staphylococcus aureus [9], with Staphylococcus aureus [10], in the data set on Staphylococcus aureus [11], against Staphylococcus aureus [12] and against Staphylococcus aureus [13] was 4 µg/mL throughout. Also, the selectivity ratio in data set [6] was over 80.

`CCCN(CCC)C(=O)C[N+](C)(C)CCCCCn1c(-c2ccc(N(C)C)cc2)nc2c3ccccc3c3ccccc3c21.[Br-]`: in [1], the HC50 at 1 h came out at 99.4 µg/mL. Moreover, the MIC is 2 µg/mL in the data set with Staphylococcus aureus [2]; 128 µg/mL in the data set on Escherichia coli; 2 µg/mL with Staphylococcus aureus [3]; 2 µg/mL with Staphylococcus aureus [4]; 8 µg/mL in the data set with Staphylococcus aureus [5]; 2 µg/mL in the data set on Staphylococcus aureus [7]. Moreover, the MIC worked out at 2 µg/mL against Staphylococcus aureus [8]; 4 µg/mL in the data set with Staphylococcus aureus [9]; 2 µg/mL against Staphylococcus aureus [10]; 4 µg/mL in the data set with Staphylococcus aureus [11]; 4 µg/mL against Staphylococcus aureus [12]; 2 µg/mL in the data set with Staphylococcus aureus [13]. In addition, the selectivity ratio in [6] came out at 49.7.

In [1], `CCCCCCNC(=O)C[N+](C)(C)CCCn1c(-c2ccc(N(C)C)cc2)nc2c3ccccc3c3ccccc3c21.[Br-]` showed a concentration for 50% haemolysis (HC50) at 1 h of over 640 µg/mL. Further, the MIC against Staphylococcus aureus [2] was 64 µg/mL; with Escherichia coli, over 128 µg/mL; with Staphylococcus aureus [3], 64 µg/mL; with Staphylococcus aureus [4], 64 µg/mL; with Staphylococcus aureus [5] it was 64 µg/mL; with Staphylococcus aureus [7], 64 µg/mL. Further, the minimum inhibitory concentration (MIC) with Staphylococcus aureus [8] amounted to 64 µg/mL; in the data set on Staphylococcus aureus [9], 128 µg/mL; against Staphylococcus aureus [10], 128 µg/mL; with Staphylococcus aureus [11], 64 µg/mL; against Staphylococcus aureus [12], 64 µg/mL; against Staphylococcus aureus [13], 128 µg/mL. The selectivity ratio in [6] is over 10.

Regarding `CCCN(CCC)C(=O)C[N+](C)(C)CCCn1c(-c2ccc(N(C)C)cc2)nc2c3ccccc3c3ccccc3c21.[Br-]`, in data set [1], the HC50 at 1 h is over 640 µg/mL. Besides, the MIC in the data set on Staphylococcus aureus [2] is 32 µg/mL; in the data set with Escherichia coli, over 128 µg/mL; in the data set with Staphylococcus aureus [3] it was 32 µg/mL; against Staphylococcus aureus [4] it was 16 µg/mL; in the data set with Staphylococcus aureus [5], 32 µg/mL; in the data set with Staphylococcus aureus [7], 32 µg/mL. The minimum inhibitory concentration (MIC) came to 32 µg/mL against Staphylococcus aureus [8]; 32 µg/mL in the data set with Staphylococcus aureus [9]; 64 µg/mL against Staphylococcus aureus [10]; 32 µg/mL against Staphylococcus aureus [11]; 32 µg/mL against Staphylococcus aureus [12]; 64 µg/mL with Staphylococcus aureus [13]. Moreover, the selectivity ratio in data set [6] was over 20.

Regarding `CC(C)N(C(=O)C[N+](C)(C)CCCn1c(-c2ccc(N(C)C)cc2)nc2c3ccccc3c3ccccc3c21)C(C)C.[Br-]`, the HC50 at 1 h in [1] is 68.5 µg/mL. Further, the minimal inhibitory concentration (MIC) with Staphylococcus aureus [2] is 2 µg/mL; with Escherichia coli it was over 128 µg/mL; against Staphylococcus aureus [3], 2 µg/mL; against Staphylococcus aureus [4], 2 µg/mL; in the data set with Staphylococcus aureus [5], 2 µg/mL; in the data set with Staphylococcus aureus [7], 2 µg/mL. Besides, the MIC in the data set on Staphylococcus aureus [8] amounted to 2 µg/mL; against Staphylococcus aureus [9] it was 2 µg/mL; with Staphylococcus aureus [10], 2 µg/mL; in the data set with Staphylococcus aureus [11], 2 µg/mL; in the data set on Staphylococcus aureus [12], 2 µg/mL; with Staphylococcus aureus [13], 4 µg/mL. Also, the selectivity ratio in data set [6] worked out at 8.6.

`CCCCN(CCCC)C(=O)C[N+](C)(C)CCCCCn1c(-c2ccc(N(C)C)cc2)nc2c3ccccc3c3ccccc3c21.[Br-]` returned an HC50 at 1 h in [1] of 225 µg/mL. For the same compound, the MIC against Staphylococcus aureus [2] is 1 µg/mL; with Escherichia coli it was over 128 µg/mL; against Staphylococcus aureus [3] it was 1 µg/mL; against Staphylococcus aureus [4] it was 1 µg/mL; with Staphylococcus aureus [5], 2 µg/mL; with Staphylococcus aureus [7], 1 µg/mL. Besides, the MIC stood at 1 µg/mL in the data set on Staphylococcus aureus [8]; 1 µg/mL with Staphylococcus aureus [9]; 1 µg/mL against Staphylococcus aureus [10]; 4 µg/mL against Staphylococcus aureus [11]; 4 µg/mL against Staphylococcus aureus [12]; 1 µg/mL in the data set on Staphylococcus aureus [13]. Moreover, the selectivity ratio in data set [6] was 225.

`O=C1C(=O)c2ccccc2-c2ccccc21` [9,10-PHENANTHRENEQUINONE] had an HC50 at 1 h in [1] of over 320 µg/mL. For the same compound, the MIC in the data set with Staphylococcus aureus [2] was 4 µg/mL (≈ 19.2 µM); in the data set on Escherichia coli, over 64 µg/mL; against Staphylococcus aureus [3] it was 8 µg/mL (≈ 38.4 µM); in the data set on Staphylococcus aureus [4], 4 µg/mL (≈ 19.2 µM); with Staphylococcus aureus [5] it was 4 µg/mL (≈ 19.2 µM); against Staphylococcus aureus [7], 4 µg/mL (≈ 19.2 µM). Also, the MIC in the data set on Staphylococcus aureus [8] amounted to 4 µg/mL (≈ 19.2 µM); against Staphylococcus aureus [9], 4 µg/mL (≈ 19.2 µM); in the data set on Staphylococcus aureus [10] it was 4 µg/mL (≈ 19.2 µM); in the data set with Staphylococcus aureus [11], 2 µg/mL (≈ 9.61 µM); against Staphylococcus aureus [12] it was 2 µg/mL (≈ 9.61 µM); against Staphylococcus aureus [13] it was 2 µg/mL (≈ 9.61 µM). Moreover, in data set [6], the selectivity ratio is over 80.

On to `C[C@@H](O)[C@H]1C(=O)N2C(C(=O)O)=C(S[C@@H]3CN[C@H](C(=O)N(C)C)C3)[C@H](C)[C@H]12` [MEROPENEM], for which the MIC with Escherichia coli was 0.063 µg/mL (≈ 0.164 µM).

Consider `CCCCCNC(=O)C[N+](C)(C)CCCCn1c(-c2ccccc2)nc2c3ccccc3c3ccccc3c21.[Br-]`, for which the MIC came to 4 µg/mL with Staphylococcus aureus [2]; 32 µg/mL in the data set on Escherichia coli; 2 µg/mL against Staphylococcus aureus [3]; 2 µg/mL with Staphylococcus aureus [4]; 2 µg/mL against Staphylococcus aureus [5]; 4 µg/mL in the data set with Staphylococcus aureus [7]. The MIC in the data set on Staphylococcus aureus [8] is 2 µg/mL; against Staphylococcus aureus [9] it was 4 µg/mL; with Staphylococcus aureus [10] it was 2 µg/mL; against Staphylococcus aureus [11], 2 µg/mL; against Staphylococcus aureus [12] it was 2 µg/mL; in the data set with Staphylococcus aureus [13], 2 µg/mL.

Values taken from ChEMBL document CHEMBL5512637, “Development of Membrane-Targeting Fluorescent 2-Phenyl-1H-phenanthro[9,10-d]imidazole-Antimicrobial Peptide Mimic Conjugates against Methicillin-Resistant Staphylococcus aureus” (J Med Chem, 2024).
